From patent US8415272B2, “Quinoline derivatives and their use as fungicides” (Syngenta Crop Protection LLC, priority 2008, dated 2013)

Legend:
Septoria tritici = experiment: Growth inhibition in nutrient broth, Septoria tritici (leaf blotch), photometric; format: cell-based; conditions: Zymoseptoria tritici, PDB broth, 24 C, 72 hrs, read-out: control of fungal infection, Septoria tritici
Phytophthora infestans = experiment: whole plant or invertebrate; format: in vivo; conditions: in Solanum lycopersicum, foliar, 96 h, read-out: control of fungal infection, Phytophthora infestans
Plasmopara viticola = experiment: Leaf disk assay, Plasmopara viticola (downy mildew of grapevine), preventive; format: in vivo; conditions: foliar, 168 h, grapevine leaf disks, assessed seven days after inoculation, read-out: control of fungal infection, Plasmopara viticola
Septoria nodorum = experiment: Leaf disk assay, Septoria nodorum (wheat glume blotch), preventive; format: in vivo; conditions: Parastagonospora nodorum, foliar, 96 h, wheat leaf segments, assessed four days after inoculation, read-out: control of fungal infection, Septoria nodorum
Pythium ultimum = experiment: Growth inhibition in potato dextrose broth, Pythium ultimum (damping off), photometric; format: cell-based; conditions: Globisporangium ultimum, 24° C., 48 hours, read-out: control of fungal infection, Pythium ultimum
Procedure, shortened: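 Growth inhibition was read photometrically at 48 hours after incubation at 24° C. Test compound was diluted from DMSO to 20 ppm in water and combined with potato dextrose broth seeded with Pythium ultimum mycelial fragments.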

Botrytis cinerea = experiment: Leaf disk assay, Botrytis cinerea (grey mould) on bean, preventive; format: in vivo; conditions: foliar, 96 h, bean leaf disks, assessed four days after inoculation, read-out: control of fungal infection, Botrytis cinerea
[1] = test system: Erysiphe graminis f.sp. tritici; experiment: Leaf disk assay, Erysiphe graminis f.sp. tritici (wheat powdery mildew), preventive; format: in vivo; conditions: Blumeria graminis, foliar, 96 h, wheat leaf segments, assessed four days after inoculation, read-out: control of fungal infection, Erysiphe graminis f.sp. tritici
Procedure, shortened: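 Wheat leaf segments on agar were sprayed with compound at 200 ppm (DMSO stock diluted in water). After 12–24 h drying they were inoculated with powdery mildew spores. Preventive activity was scored 4 days after inoculation.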

Pyrenophora teres = experiment: Leaf disk assay, Pyrenophora teres (barley net blotch), preventive; format: in vivo; conditions: foliar, 96 h, barley leaf segments, assessed four days after inoculation, read-out: control of fungal infection, Pyrenophora teres
Protocol: The compounds were tested in a leaf disk assay, with methods described below. The test compounds were dissolved in DMSO and diluted into water to 200 ppm. In the case of the test on Pythium ultimum, they were dissolved in DMSO and diluted into water to 20 ppm. Pyrenophora teres (barley net blotch): Barley leaf segments were placed on agar in a 24-well plate and sprayed with a solution of the test compound. After allowing to dry completely, for between 12 and 24 hours, the leaf disks were inoculated with a spore suspension of the fungus. After appropriate incubation the activity of a compound was assessed four days after inoculation as preventive fungicidal activity.

[2] = test system: Puccinia recondita f.sp. tritici; experiment: Leaf disk assay, Puccinia recondita f.sp. tritici (wheat brown rust), preventive; format: in vivo; conditions: foliar, 216 h, wheat leaf segments, assessed nine days after inoculation, read-out: control of fungal infection, Puccinia recondita f.sp. tritici
Fusarium culmorum = experiment: Growth inhibition in nutrient broth, Fusarium culmorum (root rot), photometric; format: cell-based; conditions: 48 h, read-out: control of fungal infection, Fusarium culmorum
Procedure, shortened: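 Fusarium culmorum conidia in potato dextrose broth were added to compounds in DMSO. Plates were incubated at 24 C for 48 hrs, with growth inhibition read photometrically. […]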

CC#Cc1cnc2ccc(OC(SC)C(=O)NC(C)(C)C#CC)cc2c1 (stereo not shown) [Example 56]
≥ 60%: inhibition of growth at 60 ppm (Septoria tritici) | pest or weed control at 200 ppm (Phytophthora infestans) | pest or weed control at 200 ppm (Plasmopara viticola) | pest or weed control at 200 ppm (Septoria nodorum) | inhibition of growth at 20 ppm (Pythium ultimum) | pest or weed control at 200 ppm (Botrytis cinerea) | pest or weed control at 200 ppm [1]

CC#CC(C)(C)NC(=O)C(Oc1ccc2ncc(C#CCOC)cc2c1)SC (stereo not shown) [Example 45]
≥ 60%: inhibition of growth at 60 ppm (Septoria tritici) | pest or weed control at 200 ppm (Phytophthora infestans) | pest or weed control at 200 ppm (Plasmopara viticola) | inhibition of growth at 20 ppm (Pythium ultimum) | pest or weed control at 200 ppm (Botrytis cinerea) | pest or weed control at 200 ppm [1]

C#Cc1cnc2c(C)cc(OC(SC)C(=O)NC(C)(C)C=O)cc2c1 (stereo not shown) [Example 73]
≥ 60%: inhibition of growth at 60 ppm (Septoria tritici) | pest or weed control at 200 ppm (Phytophthora infestans) | pest or weed control at 200 ppm (Plasmopara viticola) | pest or weed control at 200 ppm (Septoria nodorum) | inhibition of growth at 20 ppm (Pythium ultimum) | pest or weed control at 200 ppm (Botrytis cinerea) | pest or weed control at 200 ppm [1] | pest or weed control at 200 ppm (Pyrenophora teres)

COCC#Cc1cnc2ccc(OC(SC)C(=O)NC(C)(C)C#CCOC)cc2c1 (stereo not shown) [Example 44]
≥ 60%: inhibition of growth at 60 ppm (Septoria tritici) | pest or weed control at 200 ppm (Phytophthora infestans) | pest or weed control at 200 ppm (Plasmopara viticola) | inhibition of growth at 20 ppm (Pythium ultimum) | pest or weed control at 200 ppm (Botrytis cinerea) | pest or weed control at 200 ppm [1]

CC#CC(C)(C)NC(=O)C(OC)Oc1ccc2ncc(C#C[Si](C)(C)C)cc2c1 (stereo not shown) [Example 79]
≥ 60%: inhibition of growth at 60 ppm (Septoria tritici) | pest or weed control at 200 ppm (Phytophthora infestans) | pest or weed control at 200 ppm (Plasmopara viticola) | pest or weed control at 200 ppm (Botrytis cinerea) | pest or weed control at 200 ppm [1]

C#CCOCCC(C)(C#N)NC(=O)C(Oc1ccc2ncc(C#C)cc2c1)SC (stereo not shown) [Example 72]
≥ 60%: inhibition of growth at 60 ppm (Septoria tritici) | pest or weed control at 200 ppm (Phytophthora infestans) | pest or weed control at 200 ppm (Plasmopara viticola) | pest or weed control at 200 ppm (Septoria nodorum) | inhibition of growth at 20 ppm (Pythium ultimum) | pest or weed control at 200 ppm (Botrytis cinerea) | pest or weed control at 200 ppm [2] | pest or weed control at 200 ppm [1] | pest or weed control at 200 ppm (Pyrenophora teres)

C#CCOCC#CC(C)(C)NC(=O)C(Oc1cc(Cl)c2ncc(C#C)cc2c1)SC (stereo not shown) [Example 63]
≥ 60%: inhibition of growth at 60 ppm (Septoria tritici) | pest or weed control at 200 ppm (Phytophthora infestans) | pest or weed control at 200 ppm (Plasmopara viticola) | pest or weed control at 200 ppm (Septoria nodorum) | inhibition of growth at 20 ppm (Pythium ultimum) | pest or weed control at 200 ppm (Botrytis cinerea) | pest or weed control at 200 ppm [2] | pest or weed control at 200 ppm [1] | pest or weed control at 200 ppm (Pyrenophora teres)

C#Cc1cnc2ccc(OC(SC)C(=O)NC(C)(C)COC)cc2c1 (stereo not shown) [Example 29]
≥ 60%: inhibition of growth at 60 ppm (Septoria tritici) | pest or weed control at 200 ppm (Phytophthora infestans) | pest or weed control at 200 ppm (Plasmopara viticola) | inhibition of growth at 60 ppm (Fusarium culmorum) | pest or weed control at 200 ppm (Septoria nodorum) | inhibition of growth at 20 ppm (Pythium ultimum) | pest or weed control at 200 ppm [2] | pest or weed control at 200 ppm [1] | pest or weed control at 200 ppm (Pyrenophora teres)

C#Cc1cnc2c(Br)cc(OC(SC)C(=O)NC(C)(C)C#C)cc2c1 (stereo not shown) [Example 130]
≥ 60%: inhibition of growth at 60 ppm (Septoria tritici) | pest or weed control at 200 ppm (Phytophthora infestans) | pest or weed control at 200 ppm (Plasmopara viticola) | inhibition of growth at 60 ppm (Fusarium culmorum) | pest or weed control at 200 ppm (Septoria nodorum) | inhibition of growth at 20 ppm (Pythium ultimum) | pest or weed control at 200 ppm [2] | pest or weed control at 200 ppm [1] | pest or weed control at 200 ppm (Pyrenophora teres)

C#Cc1cnc2cc(F)c(OC(SC)C(=O)NC(C)(C)C#C)cc2c1 (stereo not shown) [Example 106]
≥ 60%: inhibition of growth at 60 ppm (Septoria tritici) | pest or weed control at 200 ppm (Phytophthora infestans) | pest or weed control at 200 ppm (Plasmopara viticola) | inhibition of growth at 60 ppm (Fusarium culmorum) | pest or weed control at 200 ppm (Septoria nodorum) | inhibition of growth at 20 ppm (Pythium ultimum) | pest or weed control at 200 ppm [2] | pest or weed control at 200 ppm [1] | pest or weed control at 200 ppm (Pyrenophora teres)

C#Cc1cnc2ccc(OC(SC)C(=O)NC(C)(C)C#CCOC)cc2c1 (stereo not shown) [Example 23]
≥ 60%: inhibition of growth at 60 ppm (Septoria tritici) | pest or weed control at 200 ppm (Phytophthora infestans) | pest or weed control at 200 ppm (Plasmopara viticola) | inhibition of growth at 60 ppm (Fusarium culmorum) | pest or weed control at 200 ppm (Septoria nodorum) | inhibition of growth at 20 ppm (Pythium ultimum) | pest or weed control at 200 ppm [2] | pest or weed control at 200 ppm [1] | pest or weed control at 200 ppm (Pyrenophora teres)

C#Cc1cnc2cc(F)c(OC(SC)C(=O)NC(C)(C)C)cc2c1 (stereo not shown) [Example 104]
≥ 60%: inhibition of growth at 60 ppm (Septoria tritici) | pest or weed control at 200 ppm (Phytophthora infestans) | pest or weed control at 200 ppm (Plasmopara viticola) | inhibition of growth at 60 ppm (Fusarium culmorum) | pest or weed control at 200 ppm (Septoria nodorum) | inhibition of growth at 20 ppm (Pythium ultimum) | pest or weed control at 200 ppm [2] | pest or weed control at 200 ppm [1] | pest or weed control at 200 ppm (Pyrenophora teres)

CSC(Oc1cc(C)c2ncc(C#CCO)cc2c1)C(=O)NC(C)(C)C (stereo not shown) [Example 17]
≥ 60%: inhibition of growth at 60 ppm (Septoria tritici) | pest or weed control at 200 ppm (Phytophthora infestans) | pest or weed control at 200 ppm (Plasmopara viticola) | inhibition of growth at 20 ppm (Pythium ultimum) | pest or weed control at 200 ppm (Botrytis cinerea)

C#Cc1cnc2ccc(OC(SC)C(=O)NC(C)(C)C#C)cc2c1 (stereo not shown) [Example 21]
≥ 60%: inhibition of growth at 60 ppm (Septoria tritici) | pest or weed control at 200 ppm (Phytophthora infestans) | pest or weed control at 200 ppm (Plasmopara viticola) | inhibition of growth at 60 ppm (Fusarium culmorum) | pest or weed control at 200 ppm (Septoria nodorum) | inhibition of growth at 20 ppm (Pythium ultimum) | pest or weed control at 200 ppm [2] | pest or weed control at 200 ppm [1] | pest or weed control at 200 ppm (Pyrenophora teres)

C#Cc1cnc2ccc(OC(SC)C(=O)NC(C)(C)CC)cc2c1 (stereo not shown) [Example 94]
≥ 60%: inhibition of growth at 60 ppm (Septoria tritici) | pest or weed control at 200 ppm (Phytophthora infestans) | pest or weed control at 200 ppm (Plasmopara viticola) | inhibition of growth at 60 ppm (Fusarium culmorum) | pest or weed control at 200 ppm (Septoria nodorum) | inhibition of growth at 20 ppm (Pythium ultimum) | pest or weed control at 200 ppm [2] | pest or weed control at 200 ppm [1] | pest or weed control at 200 ppm (Pyrenophora teres)

COCC#CC(C)(C)NC(=O)C(Oc1cc(C)c2ncc(C#CCO)cc2c1)SC (stereo not shown) [Example 28]
≥ 60%: pest or weed control at 200 ppm (Phytophthora infestans) | inhibition of growth at 20 ppm (Pythium ultimum) | pest or weed control at 200 ppm (Botrytis cinerea)
